Test results: patent US20240417404A1, “CRYSTALLINE FORMS OF N-[4-[4-(4-MORPHOLINYL)-7H-PYRROLO[2,3-d]PYRIMIDIN-6-YL]PHENYL]-4-[[3(R)-[(1-OXO-2-PROPEN-1-YL)AMINO]-1-[sequence]]METHYL]-2-PYRIDINECARBOXAMIDE AS IRREVERSIBLE INHIBITORS OF MENIN-MLL INTERACTION” (BIOMEA FUSION, INC., priority 2023, published 2024)
Entries after “also recorded” stand apart in the source; their conditions may differ. Where two headings read alike, the source gives them in different places.

Experiments:
Toledo = experiment: DLBCL cell line proliferation (Cell Titer Glo, four days): Toledo; format: cell-based; details: DHL, MYC/BCL2
Method: (§1) DLBCL cell line TOLEDO was cultured in the presence of Compound A or clinical reversible menin inhibitors for six and fourteen hours. Menin protein expression was reduced up to 60% at 1 μM by Compound A after fourteen hours compared to clinical reversible inhibitors at <20% at similar concentrations. Menin protein expression was measured by the Wes system and analyzed using the Compass software (automated western blotting, Protein Simple). Signal was normalized to GAPDH and referenced to DMSO control (FIG. 36E). DLBCL and MM cell lines were cultured with Compound A, bortezomib (PS-341), or DMSO for four days and cell proliferation was measured by Cell Titer Glo. Ex vivo studies of DLBCL and MM models were conducted by measurement of cell proliferation (Cell Titer Glo) after six days of treatment with Compound A, PS-341, or DMSO control.

[1] = molecular target: T1, Menin protein in DLBCL cell line TOLEDO (Homo sapiens, UniProt O00255); experiment: Menin protein expression in TOLEDO cells (Wes automated western blotting); format: cell-based; details: 1 μM, fourteen hours, normalized to GAPDH, referenced to DMSO
T1 construct: endogenous in cells; host or cells: TOLEDO (DLBCL cell line)
Method: as §1

[2] = Clinical study (SAD, food effect, MAD cohorts) in healthy and type 2 diabetes mellitus subjects; format: in vivo, human; details: human, in vivo, oral; for AUC: read-out: Exposure: AUC; for Cmax: read-out: Exposure: Cmax
Method: (§2) In Experimental Phase 1 (SAD cohorts), 40 healthy adult subjects were randomized into 4 dose escalating cohorts of 10. In each cohort, subjects were randomized at 7:3 (active and placebo) in sequential order. Each cohort was composed of 2 sentinel subjects randomized at 1:1 (active and placebo), followed by 8 additional subjects randomized at 3:1 (active and placebo). Doses were 100 mg, 200 mg, 400 mg, and 600 mg.
(§3) In Experimental Phase 1 (3-period crossover, food effect study), each cohort of 12 healthy adult subjects was randomized at 1:1:1:1:1:1 in a 3-period crossover study with 6 treatment sequences.
(§4) In Experimental Phase 2 (MAD cohorts), 1 cohort of 16 healthy adult subjects was randomized at 3:1 (active and placebo), and 7 cohorts of type 2 diabetes mellitus adult subjects were randomized at 5:1 (active and placebo) to obtain safety and efficacy data to identify the potential optimal biological dose (OBD) and a recommended Phase 2 dose (RP2D). Doses were 100 mg, 200 mg, 400 mg, and 600 mg.

[3] = test system: healthy adult subjects and type 2 diabetes mellitus adult subjects; experiment: as above; format: in vivo, human
Method: as §2, §3, §4

[4] = test system: streptozotocin (STZ) induced type II diabetes in Wistar Han rats; experiment: Glycemic control in streptozotocin-induced diabetic rats, 16-day dosing; format: in vivo, rat
Method: The present example provides the ability of Compound 10 to restore glycemic control to streptozotocin (STZ) induced type II diabetes in Wistar Han rats. Fahmy et al., 2017, World J. Pharm. Med. Res. 3(3):37-39.
Control and test compounds were stored at 4° C. and prepared weekly as needed. The vehicle for positive control pioglitazone was 0.25% carboxymethylcellulose and 1% Tween® 80 in reverse osmosis deionized water. The vehicle for Compound 10 was 10% DMSO, 10% Solutol HS 15, and 80% (10% hydroxypropyl-β-cyclodextrin in 50 mM citrate buffer at pH 3.0). The vehicle for streptozotocin pretreatment was 0.1 M sodium citrate pH 4.5.
On Day −3, twenty-four Wistar Han rats (plus eight spare Wistar Han rats) were measured for body weight and non-fasting glucose. Starting on Day −42, D12451 Research Diet was provided ad libitum throughout the study, except during designated procedures, as was water. In order to minimize the effects of stress on blood glucose and body, all animals including the spares received daily sham doses with phosphate buffered saline pH 7.2 (dose volume 5 mL/kg) via gavage beginning on Study Day −5 to Day −1. 20% Glucose in drinking water (200 g/L) was provided ad libitum for 24 hr after streptozotocin injection on Day −14 and Day −7.
On Days −14 and −7, streptozotocin was administered at 30 mg/kg/day QD intraperitoneally. Starting on Day 1, control and test compound were administered on the following schedule.
On Days −7 to −1 and on Days 1, 8, and 14 non-fasting blood glucose was measured. On Day 15, an oral glucose tolerance test was administered. The animals were weighed and the animals were placed in clean cages without food. Access to water was provided throughout the procedure. The animals were fasted for five hours and a blood glucose measurement was determined. The animals were dosed via oral gavage with 2 g/kg glucose (10 mL/kg). Blood glucose was determined via venipuncture. The second drop of blood from the animal was placed on a hand-held glucometer (Abbott Alpha Trak) at the following times relative to the glucose dose: zero (just prior to glucose dose), 15, 30, 60, 90, and 120 min. Following the final blood glucose measurement, food was returned to the cages. On Day 17, 4-hour fasting glucose was measured. Serum samples were used to measure insulin by ELISA. Analysis was performed in one to three days of each collection. On Day 17, terminal blood collection was obtained at about 8 mL per animal and measured for blood glucose.
ZDF rats were treated daily with Compound 10, vehicle, or pioglitazone for sixteen days and monitored for an additional two weeks post-treatment until Day 29. STZ rat models were induced through pre-treatment of animals on a high-fat diet with low doses of streptozotocin at Day −14 and Day −7 prior to starting treatment at Day Zero until Day 16. ZDF and STZ rats were monitored for fasting blood glucose levels, oral glucose tolerance test (OGTT), insulin and C-peptide levels, HOMA-IR (Homeostatic Model Assessment of Insulin Resistance), blood lipemic levels, and body weight according to the schematic for each model below. ZDF rats were analyzed for indicated readouts for fifteen days post-treatment for OGTT at Day 29, and serum insulin and C-peptide at Day 31.
STZ Rat Model—three treatment groups 1. Vehicle; 2. Compound 10 at 175 mg/kg; and 3. Pioglitazone at 30 mg/kg; n=10 per group. […] Rats were monitored for the following parameters through dosing—body weight, blood glucose levels, and OGTT.

SKMM2 = experiment: MM cell line proliferation (Cell Titer Glo, four days): SKMM2; format: cell-based; details: SKMM2, t(11; 14), TP53
Method: as §1

T1 sequence (O00255 whole entry): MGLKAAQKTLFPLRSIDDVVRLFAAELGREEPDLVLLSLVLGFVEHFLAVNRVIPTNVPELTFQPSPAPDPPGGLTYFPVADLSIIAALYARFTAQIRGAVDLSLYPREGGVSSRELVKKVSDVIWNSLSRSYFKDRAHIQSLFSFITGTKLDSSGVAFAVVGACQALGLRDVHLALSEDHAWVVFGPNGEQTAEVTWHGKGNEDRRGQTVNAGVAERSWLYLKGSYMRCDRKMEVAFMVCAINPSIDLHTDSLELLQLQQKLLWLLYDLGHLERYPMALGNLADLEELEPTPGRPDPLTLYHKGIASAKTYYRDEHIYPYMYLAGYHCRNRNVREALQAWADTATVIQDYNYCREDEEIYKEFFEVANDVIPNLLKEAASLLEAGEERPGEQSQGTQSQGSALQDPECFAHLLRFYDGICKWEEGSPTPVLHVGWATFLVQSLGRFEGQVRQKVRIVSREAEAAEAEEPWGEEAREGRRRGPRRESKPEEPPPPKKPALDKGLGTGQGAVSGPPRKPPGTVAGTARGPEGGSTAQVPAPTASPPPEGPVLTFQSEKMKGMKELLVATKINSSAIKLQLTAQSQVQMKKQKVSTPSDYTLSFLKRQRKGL

Compound: C=CC(=O)N[C@@H]1CCCN(Cc2ccnc(C(=O)Nc3ccc(-c4cc5c(N6CCOCC6)ncnc5[nH]4)cc3)c2)C1 [Compound A, N-[4-[4-(4-morpholinyl)-7H-pyrrolo[2,3-d]pyrimidin-6-yl]phenyl]-4-[[3(R)-[(1-oxo-2-propen-1-yl)amino]-1-piperidinyl]methyl]-2-pyridinecarboxamide]
- Average % Max Inhibition by Compound A (Toledo): 98.8%
- reduction of Menin protein expression [1]: up to 60%
- AUC ([2]; Cohort 2 (taken with food)): 84.3 ng·h/mL
- Cmax ([2]; Cohort 2 (taken with food)): 34.8 ng/mL
- AUC ([2]; Cohort 3 (taken without food)): 224 ng·h/mL
- Cmax ([2]; Cohort 3 (taken without food)): 94.2 ng/mL
- dose discontinuations ([3]; 4 weeks of treatment): no dose discontinuations
- episodes of symptomatic hypoglycemia ([3]; 4 weeks of treatment): No episodes of symptomatic hypoglycemia occurred in any patients
- safety profile ([3]; 4 weeks of treatment): well-tolerated safety profile
- severe or serious TEAEs ([3]; 4 weeks of treatment): No severe or serious TEAEs were observed
- Mean Change in HbA1c % at Week 4 ([3]; Cohort 2): (−0.25) %
- Median Change in HbA1c % at Week 4 ([3]; Cohort 2): −0.3%
- Mean Change in HbA1c % at Week 4 ([3]; Cohort 3): (−0.81) %
- Median Change in HbA1c % at Week 4 ([3]; Cohort 3): −1.0%
- patients who achieved a reduction in HbA1c ([3]; any reduction): 89%
- median change of Hb1Ac ([3]; cohort when taken with food): -0.3%
- median change of Hb1Ac ([3]; cohort when taken without food): -1%
- patients who achieved ≥0.5% reduction in HbA1c ([3]; human, in vivo): 78%
- patients who achieved ≥1% reduction in HbA1c ([3]; human, in vivo): 56%
- OGTT AUC reduction ([4]; STZ rats, Day 15, p<0.05): 41%
- insulin in the non-fasting and fasting states ([4]; STZ-induced rats (FIG. 20A, 20B)): maintenance or reduction of insulin
- non-fasting glucose ([4]; STZ-induced rats, 175 mg/kg/day PO QD, compared to vehicle and control, listed as Compound 10, 175 mg/kg/day): reduction of glucose levels; also recorded: sharp reduction in non-fasting glucose
- insulin in the non-fasting state ([4]; STZ-induced rats, Days 1 and 8 (FIG. 19)): significant reduction of insulin
- oral glucose tolerance test, glucose control ([4]; STZ-induced rats, after fifteen days of treatment): significant glucose control
- Average % Max Inhibition by Compound A (SKMM2): 80.2%
